Measurements from the NIST ThermoML archive (doi:10.1021/je060271a).
“And” between values parts separate entries of the source, which are not always exact repeats. Identical values can stand only once.

Details: Liquid, Vibrating tube method

CCCCCCC(=O)OCC(COC(=O)CCCCCC)(COC(=O)CCCCCC)COC(=O)CCCCCC [pentaerythritol tetraheptanoate]
Details	mass density
343.14 K, 27821 kPa	959.9 kg/m3
343.14 K, 27849 kPa	960 kg/m3
343.14 K, 27937 kPa	960.1 kg/m3
343.14 K, 27971 kPa	960.1 kg/m3
343.14 K, 27998 kPa	960 kg/m3
343.14 K, 28026 kPa	960 kg/m3
343.14 K, 28060 kPa	960 kg/m3
343.14 K, 28670 kPa	960.5 kg/m3
343.14 K, 28700 kPa	960.4 kg/m3
343.14 K, 29403 kPa	960.9 kg/m3
343.14 K, 33157 kPa	963.2 kg/m3
343.14 K, 33197 kPa	963.3 kg/m3
343.14 K, 33238 kPa	963.2 kg/m3
343.14 K, 33290 kPa	963.2 kg/m3
343.14 K, 33322 kPa	963.3 kg/m3
343.14 K, 33371 kPa	963.3 kg/m3
343.14 K, 33412 kPa	963.3 kg/m3
343.14 K, 33461 kPa	963.4 kg/m3
343.14 K, 33503 kPa	963.4 kg/m3
343.14 K, 33545 kPa	963.5 kg/m3
343.14 K, 33586 kPa	963.4 kg/m3
343.14 K, 33637 kPa	963.5 kg/m3
343.14 K, 33678 kPa	963.7 kg/m3
343.14 K, 33906 kPa	963.6 kg/m3
343.15 K, 100.4 kPa	940.6 kg/m3
343.15 K, 100.5 kPa	940.6 kg/m3
343.15 K, 100.7 kPa	940.6 kg/m3
343.15 K, 100.9 kPa	940.6 kg/m3
343.15 K, 102.6 kPa	940.6 kg/m3
343.15 K, 106.3 kPa	940.6 kg/m3
343.15 K, 108.5 kPa	940.6 kg/m3
343.15 K, 111.8 kPa	940.7 kg/m3
343.15 K, 116.3 kPa	940.7 kg/m3
343.15 K, 119.8 kPa	940.6 kg/m3
343.15 K, 124 kPa	940.5 kg/m3
343.15 K, 126.8 kPa	940.6 kg/m3
343.15 K, 129.2 kPa	940.5 kg/m3
343.15 K, 131.6 kPa	940.6 kg/m3
343.15 K, 133.4 kPa	940.7 kg/m3
343.15 K, 134.8 kPa	940.8 kg/m3
343.15 K, 135.3 kPa	940.7 kg/m3
343.15 K, 136.2 kPa	940.6 kg/m3
343.15 K, 136.7 kPa	940.6 kg/m3
343.15 K, 137.7 kPa	940.7 kg/m3
343.15 K, 138.6 kPa	940.7 kg/m3
343.15 K, 139.6 kPa	940.7 kg/m3
343.15 K, 140.5 kPa	940.6 kg/m3
343.15 K, 140.7 kPa	940.8 kg/m3 and 940.7 kg/m3
343.15 K, 140.8 kPa	940.6 kg/m3
343.15 K, 141 kPa	940.7 kg/m3
343.15 K, 141.2 kPa	940.6 kg/m3
343.15 K, 141.5 kPa	940.6 kg/m3
343.15 K, 141.9 kPa	940.7 kg/m3
343.15 K, 142.4 kPa	940.7 kg/m3
343.15 K, 142.9 kPa	940.6 kg/m3
343.15 K, 143.1 kPa	940.6 kg/m3 and 940.7 kg/m3
